Assay results: PubChem BioAssay AID1963973 (Molecular Pharmacology Branch, DTP, NCI, 2024)

System: 883617-216-R-J1-PDC tumor spheroids, viability
Experiment: Anticancer human tumor 883617-216-R-J1-PDC patient-derived bladder carcinoma cell line growth inhibition [PI3K]
Conditions: spheroids with HUVEC and MSC; for IC50: curve of first compound; for viability, T/C: stronger effect = lower value; active = viability on the fitted dose curve at most 10% of control; inactive = the rest
In short: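 Complex 3D spheroids (cancer cells + endothelial HUVEC + mesenchymal stem cells); drug pairs of targeted agent x inavolisib/alpelisib/duvelisib/copanlisib; half-log series from ~Cmax, max 10 microM if Cmax unknown; endpoint viability.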
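Also: spheroids exposed to agents for 7 days before the viability read.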

CC(C)n1nc(-c2ccc3oc(N)nc3c2)c2c(N)ncnc21 + COc1c(OCCCN2CCOCC2)ccc2c3n(c(=NC(=O)c4cnc(N)nc4)nc12)CCN3
active: viability, T/C (second compound 0.1 µM, first compound 0.0316 µM) 8.07% | viability, T/C (second compound 0.1 µM, first compound 0.1 µM) 4.79% | viability, T/C (second compound 0.316 µM, first compound 0.000316 µM) 5.33% | viability, T/C (second compound 0.316 µM, first compound 0.001 µM) 5.54% | viability, T/C (second compound 0.316 µM, first compound 0.00316 µM) 5.8% | viability, T/C (second compound 0.316 µM, first compound 0.01 µM) 5.35% | viability, T/C (second compound 0.316 µM, first compound 0.0316 µM) 4.04% | viability, T/C (second compound 0.316 µM, first compound 0.1 µM) 3.54% | viability, T/C (second compound 1 µM, first compound 0.000316 µM) 2.62% | viability, T/C (second compound 1 µM, first compound 0.001 µM) 3.45% | viability, T/C (second compound 1 µM, first compound 0.00316 µM) 3.33% | viability, T/C (second compound 1 µM, first compound 0.01 µM) 3.45% | viability, T/C (second compound 1 µM, first compound 0.0316 µM) 3.43% | viability, T/C (second compound 1 µM, first compound 0.1 µM) 2.69%
inactive: viability, T/C (second compound 0.00316 µM, first compound 0.000316 µM) 82.6% | viability, T/C (second compound 0.00316 µM, first compound 0.001 µM) 73.9% | viability, T/C (second compound 0.00316 µM, first compound 0.00316 µM) 79.2% | viability, T/C (second compound 0.00316 µM, first compound 0.01 µM) 63.6% | viability, T/C (second compound 0.00316 µM, first compound 0.0316 µM) 40.7% | viability, T/C (second compound 0.00316 µM, first compound 0.1 µM) 17.4% | viability, T/C (second compound 0.01 µM, first compound 0.000316 µM) 64.9% | viability, T/C (second compound 0.01 µM, first compound 0.001 µM) 61.8% | viability, T/C (second compound 0.01 µM, first compound 0.00316 µM) 62.2% | viability, T/C (second compound 0.01 µM, first compound 0.01 µM) 49.2% | viability, T/C (second compound 0.01 µM, first compound 0.0316 µM) 33.4% | viability, T/C (second compound 0.01 µM, first compound 0.1 µM) 14.4% | viability, T/C (second compound 0.0316 µM, first compound 0.000316 µM) 40.3% | viability, T/C (second compound 0.0316 µM, first compound 0.001 µM) 34.1% | viability, T/C (second compound 0.0316 µM, first compound 0.00316 µM) 34.9% | viability, T/C (second compound 0.0316 µM, first compound 0.01 µM) 28.6% | viability, T/C (second compound 0.0316 µM, first compound 0.0316 µM) 18.5% | viability, T/C (second compound 0.0316 µM, first compound 0.1 µM) 11.5% | viability, T/C (second compound 0.1 µM, first compound 0.000316 µM) 14.7% | viability, T/C (second compound 0.1 µM, first compound 0.001 µM) 15.1% | viability, T/C (second compound 0.1 µM, first compound 0.00316 µM) 15.1% | viability, T/C (second compound 0.1 µM, first compound 0.01 µM) 13.2%
10.4 nM: IC50 (second compound 0.01 µM)
< 0.316 nM: IC50 (second compound 0.0316 µM) | IC50 (second compound 0.1 µM) | IC50 (second compound 0.316 µM) | IC50 (second compound 1 µM)
20.1 nM: IC50 (second compound 0.00316 µM)
